Experimental findings from US5731353A, “Stilbene derivatives and pharmaceutical compositions containing them” (Ajinomoto Co., Inc., priority 1993, dated 1998) are described below.

≈ marks a conversion by molar mass, not a printed value. Where two headings read alike, the source gives them in different places. Bounds are passed on as bounds.

Series [1] deals with Mouse P388 leukemia cells. Put plainly: Cytotoxicity Testing: 50% growth-inhibiting concentration, MTT method. Conditions: read-out: in vitro IC50 (50% growth-inhibiting concentration). The format is cell-based. Here is the method: Mouse P388 leukemia cells were used as cancer cells for this test. The cancer cells were incubated in RPMI-1640 medium containing 5 μM 2-mercaptoethanol and 10% fetal calf serum. More specifically, the cancer cells were seeded in a 96-well microplate in an amount of 1×10^4cell/50 μl/well, 25 μl/well of an aqueous solution of the test compound mentioned below (4 μg/ml) were added to each well, and the cells were incubated therein for 2 days at 37° C. After the incubation, the number of the living cells was counted using the MTT method and a dose-reaction curve was formed from the counted data. Based on the curve, the 50% growth-inhibiting concentration (IC50) of the test compound was calculated. As a comparative compound, Combretastatin A-4 was used.
For orientation: Tetrazolium assays rely on reduction of a dye to a coloured formazan, in cell work by metabolically active cells.

Another series concerns Colon 26. Put plainly: Evaluation of Antitumor Activity: Colon 26 inoculated sc into CD2F1 mice. It counts as in vivo. Conditions: tumor volume 21 days after the day of administration. On the procedure:
Colon 26 was inoculated sc into CD2F1 mice. After a week, the size of the tumor was measured and the volume of the tumor was calculated. Mice were selected on the basis of the volume of the tumor and administration of drug was begun. Twenty-one days after the day of administration, the size of the tumor was measured and the volume of the tumor was calculated. The inhibition ratio of growth of tumor (I.R.) was calculated as shown below. I.R.(%)={1-(Average Tumor Volume of Treated Mice)/(Average Tumor Volume of Control Mice)}×100

Series [2] can be described thus: Solubility in phosphate buffer (pH 7.0), HPLC of supernatant. The format is physicochemical. Here is the method: An excess amount of each sample was dissolved in 0.1 ml of phosphate buffer (PH 7.0). The mixture was sonicated and centrifuged. The supernatant was subjected to HPLC and the solubility was measured.
Setting [3] is: 48 h, mouse P388 leukemia cells, 2 days at 37° C., MTT method.
[4] abbreviates: aqueous buffer, pH 7.0, read-out: Solubility in Phosphate Buffer (PH 7.0).
Where [5] appears, read: 40 mg/day, once a day on day 1, day 5 and day 7, perorally.
The mark [6] stands for this setting: 40 mg/day, once a day on day 1, day 5 and day 7, intravenously.

`COc1cc(/C(C#N)=C\c2ccc(Cl)c(N)c2)cc(OC)c1OC` [(E)-3-(3-amino-4-chlorophenyl)-2-(3,4,5-trimethoxyphenyl)-prop-2-ene-nitrile]: the IC50 in series [1] (setting [3]) came to 1.8 ng/mL (≈ 0.00522 µM). In addition, the “in vivo I.R. (inhibition ratio of growth of tumor)” value in the series with Colon 26 (80 mg/day, once a day on day 1, day 5 and day 7, perorally) is 23.7%.
The term solubility denotes the dissolved amount per volume that the medium holds. For the molecule `COc1ccc(/C=C(/C#N)c2cc(OC)c(OC)c(OC)c2)cc1N` [(E)-3-(3-amino-4-methoxyphenyl)-2-(3,4,5-trimethoxyphenyl)-prop-2-ene-nitrile], in series [1] (setting [3]), the IC50 is 0.2 ng/mL (≈ 0.000588 µM). Besides, in the series on Colon 26 (10 mg/day, once a day from day 1 to day 10, intravenously), the “in vivo I.R. (inhibition ratio of growth of tumor)” value was 83.4%. In addition, in series [2] (setting [4]), the solubility was 1700 µg/mL (≈ 4990 µM).
Take `COc1cc(/C(C#N)=C\c2ccc(C)c(N)c2)cc(OC)c1OC` [(E)-3-(3-amino-4-methylphenyl)-2-(3,4,5-trimethoxyphenyl)-prop-2-ene-nitrile]: the IC50 in series [1] (setting [3]) came out at 2 ng/mL (≈ 0.00617 µM). For the same molecule, the “in vivo I.R. (inhibition ratio of growth of tumor)” value with Colon 26 (setting [5]) is reported as 41.0%.
Turning to `COc1ccc(/C=C\c2cc(OC)c(OC)c(OC)c2)cc1N` [(Z)-1-(3-Amino-4-methoxyphenyl)-2-(3,4,5-trimethoxyphenyl)ethene], in series [1] (setting [3]), the IC50 was 0.2 ng/mL (≈ 0.000634 µM). Also, the “in vivo I.R. (inhibition ratio of growth of tumor)” value in the series with Colon 26 (setting [6]) is 69.5%. Also, the solubility in series [2] (setting [4]) is 34000 µg/mL (≈ 108000 µM).
Turning to `COc1cc(/C=C\c2ccc(Cl)c(N)c2)cc(OC)c1OC` [(Z)-1-(3-amino-4-chlorophenyl)-2-(3,4,5-trimethoxyphenyl)ethene], in series [1] (Mus musculus, P388, 48 h), the IC50 stood at 20 ng/mL (≈ 0.0625 µM).
Consider `COc1cc(/C=C\c2ccc(C)c(N)c2)cc(OC)c1OC` [(Z)-1-(3-amino-4-methylphenyl)-2-(3,4,5-trimethoxyphenyl)ethene], for which the IC50 in series [1] (Mus musculus, P388, 48 h) was determined as 3.5 ng/mL (≈ 0.0117 µM). Moreover, the “in vivo I.R. (inhibition ratio of growth of tumor)” value with Colon 26 (setting [6]) amounted to 61.6%.
For the molecule `COc1ccc(/C=C\c2cc(OC)c(OC)c(OC)c2)cc1O` [Combretastatin A-4, reference compound], the IC50 in series [1] (setting [3]) was determined as 0.2 ng/mL (≈ 0.000632 µM). For the same molecule, in the series on Colon 26 (setting [5]), the “in vivo I.R. (inhibition ratio of growth of tumor)” value amounted to 4.6%. For the same molecule, in series [2] (pH 7, aqueous buffer), the solubility was below 100 µg/mL.
